Data: patent US8716478B2, “Boron-containing small molecules” (Anacor Pharmaceuticals, Inc., priority 2010, dated 2014)
Read-outs that look alike come from different tables or passages of the source.

Tests used:
human PDE4 enzyme = test: Phosphodiesterase 4 (PDE4) inhibition, semi-purified enzyme from human U937 cells; format: biochemical
[1] = system: TNF-α in peripheral blood mononuclear cells (PBMCs); test: TNF-α inhibition in LPS-stimulated peripheral blood mononuclear cells; format: cell-based; conditions: PBMC
Experimental: Peripheral blood mononuclear cells (PBMCs) pooled from 10-20 donors were obtained from a local blood bank, ficoll gradient purified, and stored frozen in liquid nitrogen. Cells were thawed and seeded into 96-well plates at 5×10^5 cells/well in RPMI 1640 with 10% heat-inactivated fetal calf serum (MediaTech, Inc, Hearndon, Va., USA), Test articles were evaluated at the indicated concentrations in 150 μL media containing <2% DMSO, final, with stimulant and PBMCs. Cells were stimulated with lipopolysaccharide (LPS, phenol-extract from E. coli, Sigma-Aldrich, St. Louis, Mo.) at 1 μg/mL. Stimulation was with LPS for 24 h to measure TNF-α. Cytokines in supernatants were analyzed with a FACSArray flow cytometer (BD Biosciences, San Jose, Calif., USA) using the BD Cytometric Bead Array (CBA) Flex Set (BD Biosciences). IC50 values were calculated using the four parameter logistic equation.

[2] = Pharmacokinetics and oral bioavailability after IV and PO dosing; format: in vivo, female CD-1 mice; conditions: plasma; for bioavailability / AUC: female, CD-1, mouse; for bioavailability: po; for AUC: 10 mg/kg oral suspension dose; for clearance: mouse, 5 mg/kg, female CD-1 mice, intravenous
Experimental: The objective of this study was to evaluate the pharmacokinetics and oral bioavailability of PDE4 inhibitors following intravenous (IV) administration and oral (PO) doses in female CD-1 mice.
After dosing, blood samples were collected through 24 h, twice from each animal at specific times (3 mice/time point), into microcentrifuge tubes containing K2EDTA (anticoagulant), stored on wet ice and processed for plasma. The plasma samples were analyzed for concentrations of parent compound by LC/MS/MS using an internal standard/peak area method. Pharmacokinetic analysis of the mean plasma concentration-time profiles following IV and PO administration was performed.
[…] Dosing solutions for intravenous administration were prepared in 55% PEG300/25% PG/20% water. Oral dosing used a suspension prepared in 1% CMC in water with 0.1% Tween 80.
After dosing, blood samples were collected through 24 h, twice from each animal via retro-orbital bleed (˜0.1 mL, 1st time point) or cardiac puncture (˜0.6 mL, 2nd time point) at specific times (3 mice/time point), into microcentrifuge tubes containing K2EDTA (anticoagulant) and stored on wet ice prior to processing.
Plasma was prepared by centrifugation of blood samples for 6 min at approximately 2000×g or 6000 rpm at 4° C. All processed plasma samples (˜50 μL and 300 μL) were transferred to analysis tubes, placed on dry ice immediately and later stored at −80° C. until analysis for concentrations of experimental compound by LC/MS/MS.
Mouse IV clearance, Mouse Oral AUC and Oral Bioavailability are provided below. 6-(1-Hydroxy-1,3-dihydrobenzo[c][1,2]oxaborol-5-yloxy)-2-(2-isopropoxyethoxy)nicotinonitrile (D140) and 6-(1-hydroxy-1,3-dihydrobenzo[c][1,2]oxaborol-5-yloxy)-2-(4-oxopentyloxy)nicotinonitrile (D141) are disclosed in U.S. patent application Ser. No. 12/399,015, filed Mar. 5, 2009.

TNF-α = test: In vivo TNF-α release in LPS treated mice; design: species or system Swiss Webster mice
Experimental: In vivo TNF-α release was measured in Swiss Webster mice, 10/group. Animals were dosed via oral gavage with drug 1% CMC suspension. Thirty minutes later LPS, 1.5 mg/kg was administered by intraperitoneal injection. Ninety minutes later animals were sacrificed, blood was collected by exsangination and serum prepared for analysis. TNF-α concentration was assessed by ELISA, non-drug treated animals had TNF-α levels 1000-3000 pg/mL. 6-(1-Hydroxy-1,3-dihydrobenzo[c][1,2]oxaborol-5-yloxy)-2-(2-isopropoxyethoxy)nicotinonitrile (D140) and 6-(1-hydroxy-1,3-dihydrobenzo[c][1,2]oxaborol-5-yloxy)-2-(4-oxopentyloxy)nicotinonitrile (D141) are disclosed in U.S. patent application Ser. No. 12/399,015, filed Mar. 5, 2009.

[3] = 1 μM cAMP, 20 minutes at 25° C., read-out: PDE4 IC50
[4] = PBMCs, LPS 1 μg/mL for 24 h, read-out: Proinflammatory TNF-α IC50

Row | bioavailability [2] [%] | AUC [2] [ng·h/mL] | clearance [2] [mL/min/kg] | Structure (SMILES) | IC50 (human PDE4 enzyme; [3]) [nM] | IC50 [1, 4] [nM] | % Inhibition of TNFa Blood Levels in LPS Treated Mice (TNF-α; Oral Dose 3 mg/kg) [%] | % Inhibition of TNFa Blood Levels in LPS Treated Mice (TNF-α; Oral Dose 10 mg/kg) [%] | % Inhibition of TNFa Blood Levels in LPS Treated Mice (TNF-α; Oral Dose 30 mg/kg) [%] | IC50 (human PDE4 enzyme; under similar conditions, read-out: PDE4 IC50 value) [nM] | IC50 ([1]; under similar conditions, read-out: TNF-α IC50 value) [nM]
1 |  |  |  | CC(=O)CCCOc1nc(Oc2ccc3c(c2)COB3O)c(C#N)cc1Cl [Compound D253, 5-Chloro-2-(1-hydroxy-1,3-dihydrobenzo[c][1,2]oxaborol-5-yloxy)-6-(4-oxopentyloxy)nicotinonitrile] | 0.25 | 0.57 |  |  |  |  | 
2 | 58 | 110000 | 1.05 | CC(C)OCCOc1nc(Oc2cc(F)c3c(c2)COB3O)cc(C(F)(F)F)c1C#N [Compound D254, 6-(7-fluoro-1-hydroxy-1,3-dihydrobenzo[c][1,2]oxaborol-5-yloxy)-2-(2-isopropoxyethoxy)-4-(trifluoromethyl)nicotinonitrile] |  | 3.5 |  |  |  |  | 
3 | 100 | 13600 | 23.3 | CC(=O)CCCOc1nc(Oc2ccc3c(c2)COB3O)c(C#N)cc1C#N [Compound D244, 2-(1-Hydroxy-1,3-dihydrobenzo[c][1,2]oxaborol-5-yloxy)-6-(4-oxopentyloxy)pyridine-3,5-dicarbonitrile] |  | 0.21 |  |  |  |  | 
4 |  |  |  | COCC(COc1nc(Oc2ccc3c(c2)COB3O)c(Cl)cc1C#N)OC (centres unmarked) [Compound D232, 5-Chloro-2-(2,3-dimethoxypropoxy)-6-(1-hydroxy-1,3-dihydrobenzo[c][1,2]oxaborol-5-yloxy)nicotinonitrile] | 23 | 98 |  |  |  |  | 
5 | 100 | 3300 | 59.1 | CC(C)OCCOc1nc(Oc2cc3c(cc2F)B(O)OC3)c(Cl)cc1C#N [Compound D249, 5-Chloro-6-(6-fluoro-1-hydroxy-1,3-dihydrobenzo[c][1,2]oxaborol-5-yloxy)-2-(2-isopropoxyethoxy)nicotinonitrile] |  | 2.3 |  |  |  |  | 
6 | 100 | 5620 | 34.2 | CC(=O)CCCOc1nc(Oc2ccc3c(c2)COB3O)c(C2CC2)cc1C#N [Compound D236, 5-cyclopropyl-6-(1-hydroxy-1,3-dihydrobenzo[c][1,2]oxaborol-5-yloxy)-2-(4-oxopentyloxy)nicotinonitrile] |  | 0.34 |  |  |  |  | 
7 |  |  |  | CC(=O)CCCOc1nc(Oc2cc(C)c3c(c2)COB3O)c(Cl)cc1C#N [Compound D246, 5-Chloro-6-(1-hydroxy-7-methyl-1,3-dihydrobenzo[c][1,2]oxaborol-5-yloxy)-2-(4-oxopentyloxy)nicotinonitrile] | 1.3 | 11 |  |  |  |  | 
8 |  |  |  | N#Cc1cc(Cl)c(Oc2ccc3c(c2)COB3O)nc1OCCOC1CC1 [Compound D239, 5-Chloro-2-(2-cyclopropoxyethoxy)-6-(1-hydroxy-1,3-dihydrobenzo[c][1,2]oxaborol-5-yloxy)nicotinonitrile] | 1.3 | 0.65 |  |  |  |  | 
9 | 100 | 6920 | 26.8 | CC(C)OCCOc1nc(Oc2ccc3c(c2)COB3O)c(C2CC2)cc1C#N [Compound D237, 5-cyclopropyl-6-(1-hydroxy-1,3-dihydrobenzo[c][1,2]oxaborol-5-yloxy)-2-(2-isopropoxyethoxy)nicotinonitrile] |  | 1.5 |  |  |  |  | 
10 |  | 6300 | 44.5 | [2H]C1([2H])OB(O)c2ccc(Oc3nc(OCCOC(C)C)c(C#N)cc3Cl)cc21 [Compound D251, 5-Chloro-6-(3,3-dideuterio-1-hydroxy-1,3-dihydrobenzo[c][1,2]oxaborol-5-yloxy)-2-(2-isopropoxyethoxy)nicotinonitrile] |  | 2.3 |  |  |  |  | 
11 |  | 5840 | 20.2 | N#Cc1cc(Cl)c(Oc2ccc3c(c2)COB3O)nc1OCCOC(F)(F)F [Compound D235] |  | 2.2 |  |  |  |  | 
12 | 65 | 11200 | 9.85 | CC(C)OCCOc1nc(Oc2ccc3c(c2)COB3O)c(C(F)(F)F)cc1C#N [Compound D238, 6-(1-Hydroxy-1,3-dihydrobenzo[e][1,2]oxaborol-5-yloxy)-2-(2-isopropoxyethoxy)-5-(trifluoromethyl)nicotinonitrile] |  | 1.1 |  |  |  |  | 
13 | 71 | 17000 | 7.83 | CC(=O)CCCOc1nc(Oc2cc3c(cc2F)B(O)OC3)c(Cl)cc1C#N [Compound D250, 5-Chloro-6-(6-fluoro-1-hydroxy-1,3-dihydrobenzo[c][1,2]oxaborol-5-yloxy)-2-(4-oxopentyloxy)nicotinonitrile] |  | 0.41 |  |  |  |  | 
14 |  |  |  | Cc1cc(Oc2nc(OCCOC(C)C)c(C#N)cc2Cl)cc2c1B(O)OC2 [Compound D245, 5-Chloro-6-(1-hydroxy-7-methyl-1,3-dihydrobenzo[c][1,2]oxaborol-5-yloxy)-2-(2-isopropoxyethoxy)nicotinonitrile] | 2 | 26 |  |  |  |  | 

Row | Structure (SMILES) | bioavailability [2] [%] | AUC [2] [ng·h/mL] | clearance [2] [mL/min/kg] | IC50 (human PDE4 enzyme; [3]) [nM] | IC50 [1, 4] [nM] | % Inhibition of TNFa Blood Levels in LPS Treated Mice (TNF-α; Oral Dose 3 mg/kg) [%] | % Inhibition of TNFa Blood Levels in LPS Treated Mice (TNF-α; Oral Dose 10 mg/kg) [%] | % Inhibition of TNFa Blood Levels in LPS Treated Mice (TNF-α; Oral Dose 30 mg/kg) [%] | IC50 (human PDE4 enzyme; under similar conditions, read-out: PDE4 IC50 value) [nM] | IC50 ([1]; under similar conditions, read-out: TNF-α IC50 value) [nM]
15 | CC(C)OCCOc1nc(Oc2ccc3c(c2)COB3O)c(C#N)cc1C#N [Compound D243, 2-(1-Hydroxy-1,3-dihydrobenzo[c][1,2]oxaborol-5-yloxy)-6-(2-isopropoxyethoxy)pyridine-3,5-dicarbonitrile] | 96 | 3900 | 50 | 6.5 | 1.1 |  |  |  |  | 
16 | CC(C)OCCOc1nc(Oc2cc(F)c3c(c2)COB3O)c(Cl)cc1C#N [Compound D247, 5-Chloro-6-(7-fluoro-1-hydroxy-1,3-dihydrobenzo[c][1,2]oxaborol-5-yloxy)-2-(2-isopropoxyethoxy)nicotinonitrile] | 100 | 21000 | 18.3 | 19 | 2.9 |  |  |  |  | 
17 | CC(=O)CCCOc1nc(Oc2cc(F)c3c(c2)COB3O)c(Cl)cc1C#N [Compound D248, 5-Chloro-6-(7-fluoro-1-hydroxy-1,3-dihydrobenzo[c][1,2]oxaborol-5-yloxy)-2-(4-oxopentyloxy)nicotinonitrile] | 79 | 91000 | 1.83 | 1.7 | 0.93 |  |  |  |  | 
18 | CC(=O)CCCOc1nc(Oc2ccc3c(c2)COB3O)cc(C(F)(F)F)c1C#N [Compound D242, 6-(1-Hydroxy-1,3-dihydrobenzo[c][1,2]oxaborol-5-yloxy)-2-(4-oxopentyloxy)-4-(trifluoromethyl)nicotinonitrile] | 15 | 590 | 567 | 2.2 | 0.21 |  |  |  |  | 
19 | CC(C)OCCOc1nc(Oc2ccc3c(c2)COB3O)cc(C(F)(F)F)c1C#N [Compound D241, 6-(1-hydroxy-1,3-dihydrobenzo[c][1,2]oxaborol-5-yloxy)-2-(2-isopropoxyethoxy)-4-(trifluoromethyl)nicotinonitrile] | 100 | 14900 | 14.2 | 1.1 | 2.9 |  |  |  |  | 
20 | CC(=O)CCCOc1nc(Oc2ccc3c(c2)COB3O)ccc1C#N [Compound D141, 6-(1-hydroxy-1,3-dihydrobenzo[c][1,2]oxaborol-5-yloxy)-2-(4-oxopentyloxy)nicotinonitrile, reference compound] | 32 | 1300 | 43.3 |  |  | 36.1 | 52.4 | 67.1 | 3.1 | 1.2
